Measured values from patent US20120208204A1, “Compositions and Methods for Inhibiting Tumor Growth” (The Brigham and Women's Hospital, Inc., priority 2009, published 2012).

tested on: SGK2; experiment: Inhibition of kinase activity by SGK2 inhibitory compounds, single concentration; assay type: biochemical; details: 10 μM compound
From the text: A library of compounds was screened for inhibitors of SGK2 and PAK3 activity by assaying phosphorylation of a generic peptide substrate either directly; or indirectly by inhibiting upstream kinase PDK1 from activating the enzyme in vitro. In both cases, the phosphorylated substrate was detected using a specific anti-phospho peptide antibody that is coupled with Eu^3+ Cryptate and XL665 conjugated with streptavidin. […] All initial hits were re-assayed as a dose response series with eight 3-fold dilutions and resulting final concentrations ranged from 0.9 nM to 20 μM.

Going from `O=c1c(O)cccc2cc(O)c(O)c(O)c12` [LDN-0096727] to `O=c1c(O)cccc2ccc(O)c(O)c12` [LDN-0096728], the “% Inhibition at 10 μM” value falls from 94% to 87%.

Compared with `CC(=O)Oc1ccc(C2Nc3c(C(=O)O)ccc([N+](=O)[O-])c3C3C=CCC32)cc1` (stereo not drawn) [LDN-0033447], `O=[N+]([O-])c1c(Cl)cc(O)c2c1C1C=CCC1C(c1ccccc1)N2` (stereo not drawn) [LDN-0026088] is higher in “% Inhibition at 10 μM” value: 65% for the first, 70% for the second.

First: CCCc1cc2c(cc1N)OCO2 [LDN-0073854]
Second: CC1=C(C(=O)OCc2ccc3c(c2)OCO3)C(c2cccc(Oc3ccccc3)c2)NC(=O)N1 (stereo not drawn) [LDN-0025562]
The “% Inhibition at 10 μM” value of the first is higher: 67% for the first, 60% for the second.

Going from `CN1c2ccccc2Sc2cc(N)ccc21` [LDN-0065927] to `Nc1ccc2[nH]c(-c3ccco3)nc2c1` [LDN-0065931], the “% Inhibition at 10 μM” value rises from 52% to 78%.

First: O=C(O)c1cc2c3c(c1)C1C=CCC1CN3CC1CC=CC21 (stereo not drawn) [LDN-0043107]
Second: C1=CC2c3cccc4c3N(CC2C1)CC1CC=CC41 (stereo not drawn) [LDN-0050317]
The “% Inhibition at 10 μM” value of the first is higher: 73% for the first, 69% for the second.

Compared with `CN(C)c1ccc(C2=Nc3cccc4cccc(c34)N2)cc1` [LDN-0047445], `c1coc(C2=Nc3cccc4cccc(c34)N2)c1` [LDN-0088682] is higher in “% Inhibition at 10 μM” value: 79% for the first, 80% for the second.

Going from `Oc1cccc2ccc(Nc3ccccn3)nc12` [LDN-0088017] to `Oc1ccccc1C1Nc2cccc3cccc(c23)N1` [LDN-0045035], the “% Inhibition at 10 μM” value rises from 84% to 89%.

First: CC(C)COC(=O)c1ccc2c(c1)C1C=CCC1C(C(=O)O)N2 (stereo not drawn) [LDN-0068134]
Second: O=C(O)C1Nc2ccc(Br)cc2C2C=CCC12 (stereo not drawn) [LDN-0061702]
The “% Inhibition at 10 μM” value of the first is lower: 84% for the first, 92% for the second.

First: Cc1cc2c3c(c(Br)cc(S(=O)(=O)O)c3n1)C(=O)c1ccccc1-2 [LDN-0042012]
Second: O=C(Nc1ccc(O)c(-c2nc3ccccc3s2)c1)c1cccc(N2C(=O)CCC2=O)c1 [LDN-0041592]
The “% Inhibition at 10 μM” value of the first is higher: 87% for the first, 74% for the second.

First: O=C(O)C1Nc2c(O)cccc2C2C=CCC12 (stereo not drawn) [LDN-0062847]
Second: O=C(O)C1C2CC=CC2c2cc(Br)cc3c2N1CC1CC=CC31 (stereo not drawn) [LDN-0088050]
The “% Inhibition at 10 μM” value of the first is higher: 95% for the first, 67% for the second.

Going from `O=C(CSc1nnc(-c2ccncc2)[nH]1)c1ccc(O)c(O)c1` [LDN-0031199] to `O=C(CSc1nnc(-c2ccco2)[nH]1)c1ccc(O)c(O)c1` [LDN-0031187], the “% Inhibition at 10 μM” value falls from 68% to 67%.

Going from `CSc1ccc(-c2nc(-c3ccc(Sc4ccccc4)cc3)c(-c3ccccc3)[nH]2)cc1` [LDN-0044047] to `c1ccc(Sc2ccc(-c3nc(-c4ccccc4)[nH]c3-c3ccccc3)cc2)cc1` [LDN-0048956], the “% Inhibition at 10 μM” value rises from 65% to 68%.

Going from `COc1ccc(NC(=O)CSc2ncnc3c2oc2ccccc23)cc1` [LDN-0107905] to `CCOc1ccc(NC(=O)CSc2ncnc3c2oc2ccccc23)cc1` [LDN-0094202], the “% Inhibition at 10 μM” value rises from 66% to 78%.

First: Oc1ccc(C2Nc3cccc4cccc(c34)N2)c(O)c1 [LDN-0045038]
Second: Oc1cccc(C2Nc3cccc4cccc(c34)N2)c1 [LDN-0045024]
The “% Inhibition at 10 μM” value of the first is higher: 91% for the first, 90% for the second.

First: O=C(NCCCN1CCCCCC1)c1ccc(Cn2c(=S)[nH]c3ccc(Br)cc3c2=O)cc1 [LDN-0036382]
Second: NS(=O)(=O)c1ccc(CCNC(=O)c2ccc3c(=O)n(Cc4ccco4)c(=S)[nH]c3c2)cc1 [LDN-0036137]
The “% Inhibition at 10 μM” value of the first is lower: 67% for the first, 74% for the second.

First: Oc1ccc(-c2nc(-c3ccc4sc5ccccc5c4c3)c(-c3ccccc3)[nH]2)cc1O [LDN-0044885]
Second: Oc1ccc(-c2nc(-c3ccc4sc5ccccc5c4c3)c(-c3ccccc3)[nH]2)cc1 [LDN-0044883]
The “% Inhibition at 10 μM” value of the first is higher: 70% for the first, 64% for the second.

Compared with `Cc1ccc2c(=O)c(C(=O)c3ccccc3)cn(CC(=O)Nc3cccc(C)c3C)c2n1` [LDN-0130105], `Cc1ccc(NC(=O)Cn2cc(C(=O)c3ccccc3)c(=O)c3ccc(C)nc32)cc1` [LDN-0130103] is lower in “% Inhibition at 10 μM” value: 70% for the first, 62% for the second.

Going from `Oc1ccccc1-c1cc(-c2ccco2)[nH]n1` [LDN-0064229] to `Oc1ccc(Cl)cc1-c1cc(-c2ccco2)n[nH]1` [LDN-0086824], the “% Inhibition at 10 μM” value falls from 85% to 68%.

Going from `O=c1cc(-c2ccccc2)oc2cc(O)c(O)c(O)c12` [LDN-0096673] to `O=c1cc(-c2cc(O)c(O)c(O)c2)oc2cc(O)cc(O)c12` [LDN-0097731], the “% Inhibition at 10 μM” value rises from 67% to 87%.

Compared with `Nc1ccc2c(c1)OC1(CCCC1)O2` [LDN-0073507], `Nc1ccc2oc3ccc(N)cc3c(=O)c2c1` [LDN-0063356] is lower in “% Inhibition at 10 μM” value: 74% for the first, 50% for the second.

Going from `O=C(OCC1OC(OC(=O)c2cc(O)c(O)c(OC(=O)c3cc(O)c(O)c(O)c3)c2)C(OC(=O)c2cc(O)c(O)c(OC(=O)c3cc(O)c(O)c(O)c3)c2)C(OC(=O)c2cc(O)c(O)c(OC(=O)c3cc(O)c(O)c(O)c3)c2)C1OC(=O)c1cc(O)c(O)c(OC(=O)c2cc(O)c(O)c(O)c2)c1)c1cc(O)c(O)c(OC(=O)c2cc(O)c(O)c(O)c2)c1` (stereo not drawn) [LDN-0097728] to `Oc1cc(O)c2c(c1)O[C@@]1(c3ccc(O)c(O)c3)Oc3cc(O)c4c(c3[C@@H]2[C@H]1O)O[C@H](c1ccc(O)c(O)c1)[C@H](O)[C@H]4c1c(O)cc(O)c2c1O[C@H](c1ccc(O)c(O)c1)[C@H](O)C2` [LDN-0022358], the “% Inhibition at 10 μM” value rises from 85% to 93%.

Going from `Oc1cc2c(cc1O)C1c3ccc(O)c(O)c3OCC1(O)C2` (stereo not drawn) [LDN-0096990] to `O=C1C=C2CC3(O)COc4c(ccc(O)c4O)C3=C2C=C1O` (stereo not drawn) [LDN-0097524], the “% Inhibition at 10 μM” value rises from 91% to 93%.

First: O=C(OC1Cc2c(O)cc(O)cc2OC1c1cc(O)c(O)c(O)c1)c1cc(O)c(O)c(O)c1 (stereo not drawn) [LDN-0022369]
Second: O=C(OC1Cc2c(O)cc(O)cc2OC1c1ccc(O)c(O)c1)c1cc(O)c(O)c(O)c1 (stereo not drawn) [LDN-0096721]
The “% Inhibition at 10 μM” value of the first is lower: 92% for the first, 93% for the second.

First: COc1cccc(C2Nc3cccc4cccc(c34)N2)c1OC [LDN-0045022]
Second: C=CCc1cccc(C2Nc3cccc4cccc(c34)N2)c1O [LDN-0045040]
The “% Inhibition at 10 μM” value of the first is lower: 73% for the first, 89% for the second.

Compared with `CNC(=O)Oc1c(Br)cc2sc(=O)oc2c1Br` [LDN-0072860], `O=c1oc2c(Br)c(O)c(Br)cc2s1` [LDN-0060733] is higher in “% Inhibition at 10 μM” value: 72% for the first, 93% for the second.

First: C=C1c2cccc(O)c2C(=O)C2=C(O)C3(O)C(=O)C(C(N)=O)=C(O)C(N(C)C)C3C(O)C12.Cl (stereo not drawn) [LDN-0096663]
Second: C=C1c2c(Cl)ccc(O)c2C(=O)C2=C(O)C3(O)C(=O)C(C(N)=O)=C(O)C(N(C)C)C3C(O)C12.O=C(O)c1cc(S(=O)(=O)O)ccc1O (stereo not drawn) [LDN-0097423]
The “% Inhibition at 10 μM” value of the first is lower: 70% for the first, 76% for the second.

Going from `O=c1c(-c2cc(O)c(O)c(O)c2)coc2cc(O)c(O)c(O)c12` [LDN-0096812] to `O=c1c(O)c(-c2ccc(O)c(O)c2)oc2cc(O)ccc12` [LDN-0058389], the “% Inhibition at 10 μM” value falls from 97% to 76%.

Going from `CN(C)c1ccc(NC(=O)Nc2cccs2)cc1` [LDN-0058882] to `CN(C)c1ccc(-c2nc3cc(N)ccc3[nH]2)cc1` [LDN-0060537], the “% Inhibition at 10 μM” value rises from 61% to 72%.

Compared with `Oc1c(Cl)cc(Cl)c2c1NCCC2` [LDN-0073973], `O=C(O)c1cc(O)c(=O)c2c(O)c(O)ccc2c1` [LDN-0096503] is higher in “% Inhibition at 10 μM” value: 67% for the first, 73% for the second.

First: O=C(Nc1cccc(-c2cscn2)c1)C1CCN(Cc2cccc(-c3ccco3)c2)CC1 [LDN-0117557]
Second: O=C(CSc1ncnc2c1oc1ccccc12)Nc1ccccc1 [LDN-0107896]
The “% Inhibition at 10 μM” value of the first is lower: 60% for the first, 73% for the second.

Compared with `O=c1cc(C2Oc3cc(O)cc(O)c3CC2O)cc2c(C3Oc4cc(O)cc(O)c4CC3O)cc(O)c(O)c2c1O` (stereo not drawn) [LDN-0096771], `Oc1cc(O)c2c(c1)OC(O)(c1ccc(O)c(O)c1)C(O)C2` (stereo not drawn) [LDN-0096696] is lower in “% Inhibition at 10 μM” value: 89% for the first, 84% for the second.

Compared with `N#Cc1c(N)nc(SCC(=O)Nc2ccc([N+](=O)[O-])c3ccccc23)c(C#N)c1-c1ccco1` [LDN-0028673], `Cc1cccc(NC(=O)CSc2ncnc3c2oc2ccccc23)c1C` [LDN-0107915] is lower in “% Inhibition at 10 μM” value: 71% for the first, 67% for the second.

First: CN(C)c1ccc2nc(SCC(=O)c3ccccc3)sc2c1 [LDN-0073108]
Second: CN(C)c1ccc(C=Cc2nc3cc(N)ccc3[nH]2)cc1 [LDN-0060496]
The “% Inhibition at 10 μM” value of the first is higher: 70% for the first, 67% for the second.

Compared with `Nc1ccc2[nH]c(C=Cc3ccc(Cl)cc3)nc2c1` [LDN-0060498], `N#Cc1c(-c2ccco2)cc(-c2cccs2)nc1N` [LDN-0071067] is higher in “% Inhibition at 10 μM” value: 68% for the first, 80% for the second.

First: O=c1oc2cc(Br)c(O)c(Br)c2s1 [LDN-0060240]
Second: O=c1oc2c(O)c(O)cc3c(=O)oc4c(O)c(O)cc1c4c23 [LDN-0097519]
The “% Inhibition at 10 μM” value of the first is higher: 94% for the first, 85% for the second.

Compared with `Cc1ccc(C)n1-c1ccc(O)c(C(=O)O)c1` [LDN-0062564], `CCc1cc(-c2n[nH]cc2-c2ccc(Br)cc2)c(O)cc1O` [LDN-0106197] is lower in “% Inhibition at 10 μM” value: 90% for the first, 67% for the second.

Compared with `Cc1sc(NC(=O)COc2cccc(F)c2)c(C#N)c1C` [LDN-0086947], `Cc1c2ccccc2nc2c(F)c(NC(C)C)c(F)c(F)c12` [LDN-0071567] is higher in “% Inhibition at 10 μM” value: 67% for the first, 88% for the second.

Compared with `CC(=O)Oc1cc(-c2coc3cc(OC(C)=O)c(OC(C)=O)c(OC(C)=O)c3c2=O)cc(OC(C)=O)c1OC(C)=O` [LDN-0096738], `CCC(=O)N1CCc2cc(Br)cc(S(=O)(=O)Nc3ccc(Br)cc3)c21` [LDN-0074939] is lower in “% Inhibition at 10 μM” value: 96% for the first, 67% for the second.

Going from `CCN(CC)c1ccc(C2Nc3cccc4cccc(c34)N2)c(O)c1` [LDN-0045032] to `Cc1cc(N)c2ccccc2[n+]1CCCCCCCCCC[n+]1c(C)cc(N)c2ccccc21.[Cl-].[Cl-]` [LDN-0096422], the “% Inhibition at 10 μM” value rises from 68% to 79%.

First: O=C1CC(N2CCCCC2)C=C1Nc1ccc(F)cc1 (stereo not drawn) [LDN-0074168]
Second: N#CC1=C(NC(=O)Cc2ccccc2)c2ccccc2CC12CCCCC2 [LDN-0047862]
The “% Inhibition at 10 μM” value of the first is lower: 73% for the first, 95% for the second.

For `CC#CC1=C(CO)C(=O)C2OC2C1=O` (stereo not drawn) [LDN-0080086], the “% Inhibition at 10 μM” value was 71%.
